# Measured values: PMC10932281, “A Combination of β-Aescin and Newly Synthesized Alkylamidobetaines as Modern Components Eradicating the Biofilms of Multidrug-Resistant Clinical Strains of Candida glabrata” (International Journal of Molecular Sciences, 2024)
# Read-outs that look alike come from different tables or passages of the source.
# Columns and labels:
# [1] = test system: biofilms of C. glabrata DSM 1226 and two clinical isolates; parameters: method as in PMID 37508306; settings: combination with β-AE; biofilms of three strains; ref [12]; cited from earlier work
# [2] = test system: C. glabrata 2853; assay: Interaction of AABs (3 µM) with antifungal agents, modified checkerboard; format: cell-based, Candida glabrata; settings: for Multiplicity factor (MF) with C9: C9 3 µM; for MIC90 of antimycotic combined with C9: C9 at constant 3 µM; for MIC90 of antimycotic combined with C9 / MIC90 of antimycotic combined with C11 / MIC90 of antimycotic combined with C13 / MIC90 of antimycotic combined with C15: dilutions in µg/mL; for Multiplicity factor (MF) with C11: C11 3 µM; for MIC90 of antimycotic combined with C11: C11 at constant 3 µM; for Multiplicity factor (MF) with C13: C13 3 µM; for MIC90 of antimycotic combined with C13: C13 at constant 3 µM; for Multiplicity factor (MF) with C15: C15 3 µM; for MIC90 of antimycotic combined with C15: C15 at constant 3 µM
# [3] = test system: C. glabrata strains (ATCC 90030, 2586, 2853); assay: Interaction of AABs with antifungal agents, statements for all tested strains together; format: cell-based, Candida glabrata; settings: all of the tested C. glabrata strains; AABs 3 µM
# [4] = test system: C. glabrata ATCC 90030; assay: Interaction of AABs (3 µM) with antifungal agents, modified checkerboard; format: cell-based, Candida glabrata; settings: for Multiplicity factor (MF) with C9: C9 3 µM, |MF| = MIC90 alone/MIC90 with AAB; for MIC90 of antimycotic combined with C9: C9 at constant 3 µM; for MIC90 of antimycotic combined with C9 / MIC90 of antimycotic combined with C11 / MIC90 of antimycotic combined with C13 / MIC90 of antimycotic combined with C15: dilutions in µg/mL; for Multiplicity factor (MF) with C11: C11 3 µM; for MIC90 of antimycotic combined with C11: C11 at constant 3 µM; for Multiplicity factor (MF) with C13: C13 3 µM; for MIC90 of antimycotic combined with C13: C13 at constant 3 µM; for Multiplicity factor (MF) with C15: C15 3 µM; for MIC90 of antimycotic combined with C15: C15 at constant 3 µM
# [5] = test system: C. glabrata ATCC 90030; assay: MIC90/MFC, EUCAST broth microdilution; format: cell-based, Candida glabrata; settings: Nakaseomyces glabratus, ATCC90030, ATCC 90030; for MFC: read-out: MFC; for MIC90: read-out: MIC90
# [6] = test system: C. glabrata 2853 clinical strain; assay: MIC90/MFC, EUCAST broth microdilution; format: cell-based, Candida glabrata; settings: Nakaseomyces glabratus; for MFC: read-out: MFC; for MIC90: read-out: MIC90
# [7] = test system: C. glabrata 2586; assay: Interaction of AABs (3 µM) with antifungal agents, modified checkerboard; format: cell-based, Candida glabrata; settings: for Multiplicity factor (MF) with C9: C9 3 µM; for MIC90 of antimycotic combined with C9: C9 at constant 3 µM; for MIC90 of antimycotic combined with C9 / MIC90 of antimycotic combined with C11 / MIC90 of antimycotic combined with C13 / MIC90 of antimycotic combined with C15: dilutions in µg/mL; for Multiplicity factor (MF) with C11: C11 3 µM; for MIC90 of antimycotic combined with C11: C11 at constant 3 µM; for MIC90 of antimycotic combined with C13: C13 at constant 3 µM; for Multiplicity factor (MF) with C15: C15 3 µM; for MIC90 of antimycotic combined with C15: C15 at constant 3 µM
# [8] = test system: C. glabrata 2853; assay: FICI checkerboard, β-aescin with antifungal drugs; format: cell-based, Candida glabrata; settings: for FICI: combination with β-aescin
# [9] = test system: C. glabrata ATCC 90030; assay: FICI checkerboard, β-aescin with antifungal drugs; format: cell-based, Candida glabrata; settings: combination with β-aescin
# [10] = test system: C. glabrata 2586; assay: FICI checkerboard, β-aescin with antifungal drugs; format: cell-based, Candida glabrata; settings: combination with β-aescin
# [11] = test system: C. glabrata 2586 clinical strain; assay: MIC90/MFC, EUCAST broth microdilution; format: cell-based, Candida glabrata; settings: Nakaseomyces glabratus; for MFC: read-out: MFC; for MIC90: read-out: MIC90
# [12] = test system: C. glabrata ATCC 90030 and 24 clinical isolates; parameters: method as in PMID 26092104; settings: ref [8], cited from earlier work
# [13] = test system: C. albicans; parameters: method as in doi:10.1016/j.carbpol.2003.10.001; settings: C. albicans among organisms tested; ref [35]; cited from earlier work
# [14] = parameters: method as in doi:10.1007/BF02673395; settings: ref [48]; cited from earlier work
compound,measurement,setting,value
CCC(C)n1ncn(-c2ccc(N3CCN(c4ccc(OCC5COC(Cn6cncn6)(c6ccc(Cl)cc6Cl)O5)cc4)CC3)cc2)c1=O (centres unmarked) [Itraconazole],FICI,[1],≤ 0.5
same,Multiplicity factor (MF) with C9,[2],1
same,MIC90 of antimycotic combined with C9,[2],4096
same,Multiplicity factor (MF) with C11,[2],1
same,MIC90 of antimycotic combined with C11,[2],4096
same,Multiplicity factor (MF) with C13,[2],1
same,MIC90 of antimycotic combined with C13,[2],4096
same,Multiplicity factor (MF) with C15,[2],1
same,MIC90 of antimycotic combined with C15,[2],4096
same,MF with AABs,[3],1
same,Multiplicity factor (MF) with C9,[4],1
same,MIC90 of antimycotic combined with C9,[4],4096
same,Multiplicity factor (MF) with C11,[4],1
same,MIC90 of antimycotic combined with C11,[4],4096
same,Multiplicity factor (MF) with C13,[4],1
same,MIC90 of antimycotic combined with C13,[4],4096
same,Multiplicity factor (MF) with C15,[4],1
same,MIC90 of antimycotic combined with C15,[4],4096
same,MFC,[5],4100 µg/mL
same,MIC90,[5],4100 µg/mL
same,MFC,[6],4100 µg/mL
same,MIC90,[6],4100 µg/mL
same,Multiplicity factor (MF) with C9,[7],1
same,MIC90 of antimycotic combined with C9,[7],4096
same,Multiplicity factor (MF) with C11,[7],1
same,MIC90 of antimycotic combined with C11,[7],4096
same,Multiplicity factor (MF) with C13,[7]; C13 3 µM,1
same,MIC90 of antimycotic combined with C13,[7],4096
same,Multiplicity factor (MF) with C15,[7],1
same,MIC90 of antimycotic combined with C15,[7],4096
same,FICI,[8],1.004
same,FICI,[9],1.004
same,FICI,[10],1.004
same,MFC,[11],4100 µg/mL
same,MIC90,[11],4100 µg/mL
CC(=O)N1CCN(c2ccc(OCC3COC(Cn4ccnc4)(c4ccc(Cl)cc4Cl)O3)cc2)CC1 (centres unmarked) [Ketoconazole],FICI,[1],≤ 0.5
same,Multiplicity factor (MF) with C9,[2],1
same,MIC90 of antimycotic combined with C9,[2],4
same,Multiplicity factor (MF) with C11,[2],1
same,MIC90 of antimycotic combined with C11,[2],4
same,Multiplicity factor (MF) with C13,[2],2 (2)
same,Multiplicity factor (MF) with C13,[2]; listed as ketoconazole,2
same,MIC90 of antimycotic combined with C13,[2],2 (2)
same,Multiplicity factor (MF) with C15,[2],4
same,MIC90 of antimycotic combined with C15,[2],1
same,Multiplicity factor (MF) with C9,[4],16 (16)
same,Multiplicity factor (MF) with C9,[4]; listed as ketoconazole,16
same,MIC90 of antimycotic combined with C9,[4],16 (16)
same,Multiplicity factor (MF) with C11,[4],16 (16)
same,Multiplicity factor (MF) with C11,[4]; listed as ketoconazole,16
same,MIC90 of antimycotic combined with C11,[4],16 (16)
same,Multiplicity factor (MF) with C13,[4],16 (16)
same,Multiplicity factor (MF) with C13,[4]; listed as ketoconazole,16
same,MIC90 of antimycotic combined with C13,[4],16 (16)
same,Multiplicity factor (MF) with C15,[4],64
same,MIC90 of antimycotic combined with C15,[4],4
same,MFC,[5],1020 µg/mL
same,MIC90,[5],256 µg/mL
same,MFC,[6],1020 µg/mL
same,MIC90,[6],4 µg/mL
same,Multiplicity factor (MF) with C9,[7],8
same,MIC90 of antimycotic combined with C9,[7],64
same,Multiplicity factor (MF) with C11,[7],16
same,MIC90 of antimycotic combined with C11,[7],32
same,MIC90 of antimycotic combined with C13,[7],16
same,Multiplicity factor (MF) with C15,[7],64
same,MIC90 of antimycotic combined with C15,[7],8
same,Type of interaction with β-AE (by FICI),[8],additive
same,FICI,[8],0.75
same,FICI,[9],2
same,FICI,[10],1.25
same,MFC,[11],1020 µg/mL
same,MIC90,[11],512 µg/mL
C[C@@H]1[C@H](O)[C@@H](C)/C=C/C=C/CC/C=C/C=C/C=C/C=C/C(O[C@H]2O[C@H](C)[C@@H](O)[C@H](N)[C@@H]2O)CC2O[C@](O)(CC(O)C(O)CCC(O)CC(O)CC(O)CC(=O)O[C@H]1C)CC(O)C2C(=O)O (some centres unmarked) [nystatin],Fold reduction of MIC,[12]; subinhibitory concentrations of β-AE crystalline,2–16 fold
same,Fold reduction of MIC,[12]; subinhibitory concentrations of β-AE sodium,2–4 fold
C12–C18 alkyl amido propyl dimethylamine betaine [AAPDB],Antimicrobial activity,[13],active
N-hexadecylamidepropylbetaine,Krafft point,[14],16 °C
